Assay results from patent US10617674B2, “Dosage regimen for the treatment of acute exacerbations of inflammatory conditions” (MEREO BIOPHARMA 1 LIMITED, priority 2016, dated 2020).

How the values were obtained:
p38a and p3813 = assay: Estimated enzyme inhibition from drug levels relative to Ki and IC50
Description: The concentration based on free fraction is at or above 740 nM for the duration of the dosing interval. Cmax is approximately 2 μM based on the first dose.

p38a = p38a (Homo sapiens, UniProt Q16539); assay: p38a kinase K (Ki) and IC50 values; type: biochemical
[1] = Oral bioavailability in the monkey; settings: in vivo, estimated
[2] = PK profile of the Day 1, 3 and 5 oral dosing regimen (drug levels); type: in vivo, human
Source text: This study investigated the efficacy, safety and tolerability of two different dosing regimens of 3-[5-amino-4-(3-cyanobenzoyl)-pyrazol-1-yl]-N-cyclopropyl-4-methyl benzamide added to SoC (systemic corticosteroids and/or antibiotics) versus placebo added to SoC in subjects with severe acute exacerbations of asthma. The proposed doses take into account trough levels based on PK modelling to ensure that the drug rapidly achieves and remains at effective concentrations between doses.
Overall, a dose-dependent reduction in TNF-α levels has been observed following doses ranging from 0.1 to 75 mg 3-[5-amino-4-(3-cyanobenzoyl)-pyrazol-1-yl]-N-cyclopropyl-4-methylbenzamide, although flattening of this effect to between 45 to 50% of placebo levels occurred between doses of 30 and 75 mg. A number of PK studies have been performed looking at both dosing intervals (Days 1, 3 and 5 (FIGS. 1-4, top panels) versus Days 1, 4 and 7 (FIGS. 1-4 bottom panels)), as well as dose levels (approximately 75/40/40 mg (FIG. 1); approximately 75/20/20 (FIG. 2); approximately 40/40/40 mg (FIG. 3); approximately 40/20/20 mg (FIG. 4), etc.). Based on exposures of the various regimens, there is limited benefit in dosing beyond Day 5 for a typical exacerbation.

[3] = Oral bioavailability in the dog; settings: in vivo, estimated
[4] = Plasma protein binding, free fraction in human plasma samples; type: in vitro ADME
p3813 = p3813 (Homo sapiens, UniProt Q15759); assay: p3813 kinase K (Ki) and IC50 values; type: biochemical
[5] = Oral bioavailability in the rat; settings: in vivo, estimated

Sequence of p38a (Q16539 whole entry): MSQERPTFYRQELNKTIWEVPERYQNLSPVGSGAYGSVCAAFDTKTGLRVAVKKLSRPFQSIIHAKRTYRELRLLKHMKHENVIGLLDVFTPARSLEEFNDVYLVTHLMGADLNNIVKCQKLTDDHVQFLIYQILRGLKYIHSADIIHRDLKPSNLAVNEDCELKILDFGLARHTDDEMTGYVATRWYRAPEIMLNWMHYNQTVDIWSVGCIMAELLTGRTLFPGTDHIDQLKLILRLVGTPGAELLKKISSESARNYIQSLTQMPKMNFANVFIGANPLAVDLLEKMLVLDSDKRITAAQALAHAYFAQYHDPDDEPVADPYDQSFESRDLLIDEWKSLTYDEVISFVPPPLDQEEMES
Sequence of p3813 (Q15759 whole entry): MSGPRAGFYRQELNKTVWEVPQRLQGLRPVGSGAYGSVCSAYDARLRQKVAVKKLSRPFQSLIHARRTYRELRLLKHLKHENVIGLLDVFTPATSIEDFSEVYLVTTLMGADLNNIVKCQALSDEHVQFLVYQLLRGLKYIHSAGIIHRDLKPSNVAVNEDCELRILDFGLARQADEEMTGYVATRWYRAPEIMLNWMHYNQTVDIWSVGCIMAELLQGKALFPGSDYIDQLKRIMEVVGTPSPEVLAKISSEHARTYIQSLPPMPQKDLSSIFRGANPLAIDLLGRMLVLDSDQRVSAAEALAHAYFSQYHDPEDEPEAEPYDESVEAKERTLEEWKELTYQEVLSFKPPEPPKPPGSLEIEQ

duration of >99% enzyme inhibition (p38a and p3813): 6 days
enzyme inhibition (p38a and p3813): > 99%
IC50 (p38a): 37 nM
Ki (p38a): 49 nM
bioavailability [1]: 90%
drug levels maintained ([2]; dosing at Day 1, 3 and 5): above 220 ng/mL
plasma concentration ([2]; dosing at Day 1, 3 and 5): 5700 nM
concentration based on free fraction ([2]; for the duration of the dosing interval): ≥ 740 nM
Cmax ([2]; human, plasma, oral, based on the first dose): ~2000 nM
bioavailability [3]: 87%
fraction unbound [4]: 0.13 to 0.25
IC50 (p3813): 106 nM
Ki (p3813): 72 nM
bioavailability [5]: 93%
Compound: Cc1ccc(C(=O)NC2CC2)cc1-n1ncc(C(=O)c2cccc(C#N)c2)c1N [3-[5-amino-4-(3-cyanobenzoyl)-pyrazol-1-yl]-N-cyclopropyl-4-methylbenzamide]
